pIC50: −log10 of the molar value.
Columns and labels:
Capan-1 (K-Ras G12V) = test: CellTiter-Glo cell viability assay, 5-day treatment; type: cell-based; conditions: Homo sapiens, CAPAN-1, 120 h, 5-day treatment; read-out: Capan-1 Cell Viability assay data (K-Ras G12V, IC50)
Method in brief: (§1)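 Seeded cells received test compound by direct dispensing. On day 5 the plates sat at room temperature approximately 30 minutes, then luminescence was measured. Data were normalized to DMSO and curve-fitted with four parameters.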

NCI-H358 (K-Ras G12C) = test: as above; type: cell-based; conditions: Homo sapiens, NCI-H358, 120 h, 5-day treatment; read-out: H358 Cell Viability assay data (K-Ras G12C, IC50)
Method in brief: as §1

KRAS G12C = KRAS G12C (Homo sapiens, UniProt P01116+P62937, G12C); test: Disruption of BRAF RBD interaction with Ras (FRET / MOA assay, with Cyclophilin A); type: biochemical; conditions: read-out: KRAS G12C FRET data, IC50
Sequence of KRAS G12C (P01116 1-169 isoform P01116-2 G12C): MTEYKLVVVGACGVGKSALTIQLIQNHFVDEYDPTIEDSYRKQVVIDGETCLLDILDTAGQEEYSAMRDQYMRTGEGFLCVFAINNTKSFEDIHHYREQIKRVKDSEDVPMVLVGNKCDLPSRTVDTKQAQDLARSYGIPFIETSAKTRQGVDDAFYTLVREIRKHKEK
Sequence of KRAS G12C (P62937 whole entry): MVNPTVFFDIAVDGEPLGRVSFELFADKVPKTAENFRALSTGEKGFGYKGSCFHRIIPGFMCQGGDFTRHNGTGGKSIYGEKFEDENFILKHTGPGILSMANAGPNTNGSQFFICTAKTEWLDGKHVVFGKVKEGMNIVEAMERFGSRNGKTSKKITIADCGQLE
Method in brief: (§2)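 Measured via TR-FRET after 3 h at 25 °C with compound (30 μM top, threefold serial steps, ten concentrations) plus K-Ras, Cyclophilin A and BRAF RBD, followed by 1.5 h with anti-His europium (10 nM) and anti-GST allophycocyanin (50 nM). Signal loss versus DMSO gave IC50.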

KRAS G12D = KRAS G12D (Homo sapiens, UniProt P01116+P62937, G12D); test: as above; type: biochemical; conditions: read-out: KRAS G12D FRET data, IC50
Sequence of KRAS G12D (P01116 1-169 isoform P01116-2 G12D limits assumed): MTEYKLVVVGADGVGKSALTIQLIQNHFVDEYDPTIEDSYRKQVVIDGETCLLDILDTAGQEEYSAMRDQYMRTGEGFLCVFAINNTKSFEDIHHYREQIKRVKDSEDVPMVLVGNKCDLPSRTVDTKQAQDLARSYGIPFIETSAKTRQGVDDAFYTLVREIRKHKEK
Sequence of KRAS G12D (P62937 whole entry): as the sequence (P62937 whole entry) above
Method in brief: as §2

KRAS G12S = KRAS G12S (Homo sapiens, UniProt P01116+P62937, G12S); test: as above; type: biochemical; conditions: read-out: KRAS G12S FRET data, IC50
Sequence of KRAS G12S (P01116 1-169 isoform P01116-2 G12S limits assumed): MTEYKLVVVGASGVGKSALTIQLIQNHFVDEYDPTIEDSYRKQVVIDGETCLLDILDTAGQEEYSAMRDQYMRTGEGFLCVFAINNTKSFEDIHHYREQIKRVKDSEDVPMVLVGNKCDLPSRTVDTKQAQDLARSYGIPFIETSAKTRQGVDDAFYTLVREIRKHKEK
Sequence of KRAS G12S (P62937 whole entry): as the sequence (P62937 whole entry) above
Method in brief: as §2

KRAS G12V = KRAS G12V (Homo sapiens, UniProt P01116+P62937, G12V); test: as above; type: biochemical; conditions: KRAS G12V; read-out: KRAS G12V FRET data IC50
Sequence of KRAS G12V (P01116 1-169 isoform P01116-2 G12V limits assumed): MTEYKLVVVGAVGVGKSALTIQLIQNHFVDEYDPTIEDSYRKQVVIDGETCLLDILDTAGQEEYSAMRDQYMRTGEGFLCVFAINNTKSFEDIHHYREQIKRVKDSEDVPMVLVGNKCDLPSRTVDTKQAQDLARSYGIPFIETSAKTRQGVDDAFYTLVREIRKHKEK
Sequence of KRAS G12V (P62937 whole entry): as the sequence (P62937 whole entry) above
Method in brief: as §2

KRAS G13C = KRAS G13C (Homo sapiens, UniProt P01116+P62937, G13C); test: as above; type: biochemical; conditions: read-out: KRAS G13C FRET data, IC50
Sequence of KRAS G13C (P01116 1-169 isoform P01116-2 G13C): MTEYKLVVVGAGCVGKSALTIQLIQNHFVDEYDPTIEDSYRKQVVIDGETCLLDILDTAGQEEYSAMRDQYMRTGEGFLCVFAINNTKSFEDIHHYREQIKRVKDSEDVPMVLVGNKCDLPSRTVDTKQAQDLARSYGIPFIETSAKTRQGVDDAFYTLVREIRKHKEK
Sequence of KRAS G13C (P62937 whole entry): as the sequence (P62937 whole entry) above
Method in brief: as §2

KRAS G13D = KRAS G13D (Homo sapiens, UniProt P01116+P62937, G13D); test: as above; type: biochemical; conditions: KRAS G13D; read-out: KRAS G13D FRET data IC50
Sequence of KRAS G13D (P01116 1-169 isoform P01116-2 G13D limits assumed): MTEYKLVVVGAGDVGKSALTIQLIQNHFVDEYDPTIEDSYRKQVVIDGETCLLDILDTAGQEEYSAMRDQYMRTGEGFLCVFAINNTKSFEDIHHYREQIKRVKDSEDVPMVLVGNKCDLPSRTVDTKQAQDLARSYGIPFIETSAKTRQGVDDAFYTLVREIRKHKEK
Sequence of KRAS G13D (P62937 whole entry): as the sequence (P62937 whole entry) above
Method in brief: as §2

KRAS WT = KRAS WT (Homo sapiens, UniProt P01116+P62937); test: as above; type: biochemical; conditions: KRAS WT; read-out: KRAS WT FRET data IC50
Sequence of KRAS WT (P01116 1-169 isoform P01116-2 limits assumed): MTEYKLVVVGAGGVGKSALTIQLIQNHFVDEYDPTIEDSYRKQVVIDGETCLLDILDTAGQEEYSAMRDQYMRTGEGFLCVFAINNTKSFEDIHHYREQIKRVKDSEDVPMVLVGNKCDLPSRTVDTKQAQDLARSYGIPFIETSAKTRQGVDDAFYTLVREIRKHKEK
Sequence of KRAS WT (P62937 whole entry): as the sequence (P62937 whole entry) above
Method in brief: as §2

NRAS G12C = NRAS G12C (Homo sapiens, UniProt P01111+P62937, G12C); test: as above; type: biochemical; conditions: NRAS G12C; read-out: NRAS G12C FRET data IC50
Sequence of NRAS G12C (P01111 whole entry G12C): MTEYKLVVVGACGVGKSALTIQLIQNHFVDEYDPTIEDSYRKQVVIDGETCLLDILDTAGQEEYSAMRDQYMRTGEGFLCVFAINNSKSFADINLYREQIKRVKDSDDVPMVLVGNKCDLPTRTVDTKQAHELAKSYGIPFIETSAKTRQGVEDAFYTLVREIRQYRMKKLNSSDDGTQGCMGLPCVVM
Sequence of NRAS G12C (P62937 whole entry): as the sequence (P62937 whole entry) above

KRAS Q61H = KRAS Q61H (Homo sapiens, UniProt P01116+P62937, Q61H); test: as above; type: biochemical; conditions: KRAS Q61H; read-out: KRAS Q61H FRET data IC50
Sequence of KRAS Q61H (P01116 1-169 isoform P01116-2 Q61H limits assumed): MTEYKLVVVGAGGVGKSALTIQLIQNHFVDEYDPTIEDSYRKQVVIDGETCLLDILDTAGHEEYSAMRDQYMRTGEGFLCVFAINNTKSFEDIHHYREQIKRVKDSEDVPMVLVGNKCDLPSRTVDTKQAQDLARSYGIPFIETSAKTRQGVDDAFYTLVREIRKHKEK
Sequence of KRAS Q61H (P62937 whole entry): as the sequence (P62937 whole entry) above
Method in brief: (§3)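 TR-FRET in 25 mM HEPES pH 7.3, 100 mM NaCl, 5 mM MgCl2, 0.1% BSA: 25 μM Cyclophilin A, 12.5 nM His6-Ras-GMPPNP, 50 nM GST-BRAF RBD with compound (10-point 3-fold series from 30 μM), 3 h at 25° C. Anti-His Eu/anti-GST APC added, 1.5 h more; IC50 from decreased FRET ratio versus DMSO.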

NRAS Q61K = NRAS Q61K (Homo sapiens, UniProt P01111+P62937, Q61K); test: as above; type: biochemical; conditions: NRAS Q61K; read-out: NRAS Q61K FRET data IC50
Sequence of NRAS Q61K (P01111 whole entry Q61K): as the sequence (P01111 whole entry G12C) above, with C12G, Q61K counted along it
Sequence of NRAS Q61K (P62937 whole entry): as the sequence (P62937 whole entry) above
Method in brief: as §3

NRAS Q61R = NRAS Q61R (Homo sapiens, UniProt P01111+P62937, Q61R); test: as above; type: biochemical; conditions: NRAS Q61R; read-out: NRAS Q61R FRET data IC50
Sequence of NRAS Q61R (P01111 whole entry Q61R): as the sequence (P01111 whole entry G12C) above, with C12G, Q61R counted along it
Sequence of NRAS Q61R (P62937 whole entry): as the sequence (P62937 whole entry) above
Method in brief: as §3

NRAS WT = NRAS WT (Homo sapiens, UniProt P01111+P62937); test: as above; type: biochemical; conditions: NRAS WT; read-out: NRAS WT FRET data IC50
Sequence of NRAS WT (P01111 whole entry): as the sequence (P01111 whole entry G12C) above, with C12G counted along it
Sequence of NRAS WT (P62937 whole entry): as the sequence (P62937 whole entry) above
Method in brief: as §3

Row | Structure (SMILES) | pIC50 (NCI-H358 (K-Ras G12C)) | pIC50 (KRAS G12C) | pIC50 (KRAS G12D) | pIC50 (KRAS G12S) | pIC50 (KRAS G12V) | pIC50 (KRAS G13C) | pIC50 (KRAS G13D) | pIC50 (KRAS WT) | pIC50 (NRAS G12C) | pIC50 (KRAS Q61H) | pIC50 (NRAS Q61K) | pIC50 (NRAS Q61R) | pIC50 (NRAS WT) | pIC50 (Capan-1 (K-Ras G12V))
1 | CCn1c(-c2cccnc2[C@H](C)OC)c2c3cc(ccc31)-c1csc(n1)C[C@H](NC(=O)[C@H](C(C)C)N(C)C(=O)N(C)[C@@H]1CCCN(C)C1)C(=O)N1CCC[C@H](N1)C(=O)OCC(C)(C)C2 [Example A587] | 7.00 to 8.00 | 6.00 to 7.00 | 6.00 to 7.00 | 6.00 to 7.00 | 5.00 to 6.00 | 6.00 to 7.00 | 6.00 to 7.00 | 6.00 to 7.00 | 6.00 to 7.00 | 6.00 to 7.00 | 6.00 to 7.00 | 6.00 to 7.00 | 6.00 to 7.00 | 7.00 to 8.00
2 | CCn1c(-c2cccnc2[C@H](C)OC)c2c3cc(ccc31)-c1csc(n1)C[C@H](NC(=O)[C@H](C(C)C)N(C)C(=O)N1CC[C@H](N(C)C)C1)C(=O)N1CCC[C@H](N1)C(=O)OCC(C)(C)C2 [Example A603] | 7.00 to 8.00 | 6.00 to 7.00 | 6.00 to 7.00 | 6.00 to 7.00 | 6.00 to 7.00 | 6.00 to 7.00 | 6.00 to 7.00 | 6.00 to 7.00 | 6.00 to 7.00 | 6.00 to 7.00 | 6.00 to 7.00 | 6.00 to 7.00 | 6.00 to 7.00 | 7.00 to 8.00
3 | CCn1c(-c2cccnc2[C@H](C)OC)c2c3cc(ccc31)-c1csc(n1)C[C@H](NC(=O)[C@H](C(C)C)N(C)C(=O)N1CCOC[C@@H]1c1ccccc1)C(=O)N1CCC[C@H](N1)C(=O)OCC(C)(C)C2 [Example A604] | 6.00 to 7.00 | 5.00 to 6.00 | 5.00 to 6.00 | 5.00 to 6.00 | 5.00 to 6.00 | 5.00 to 6.00 | 5.00 to 6.00 | 5.00 to 6.00 | 5.00 to 6.00 | 6.00 to 7.00 | 6.00 to 7.00 | 5.00 to 6.00 | 5.00 to 6.00 | 5.00 to 6.00

Further lines, with some results ahead:

Row | pIC50 (NCI-H358 (K-Ras G12C)) | pIC50 (KRAS G12C) | pIC50 (KRAS G12D) | pIC50 (KRAS G12S) | pIC50 (KRAS G12V) | pIC50 (KRAS G13C) | pIC50 (KRAS G13D) | pIC50 (KRAS WT) | pIC50 (NRAS G12C) | pIC50 (KRAS Q61H) | pIC50 (NRAS Q61K) | pIC50 (NRAS Q61R) | pIC50 (NRAS WT) | Structure (SMILES) | pIC50 (Capan-1 (K-Ras G12V))
4 | 5.00 to 6.00 | 5.00 to 6.00 | 5.00 to 6.00 | 5.00 to 6.00 | 5.00 to 6.00 | 5.00 to 6.00 | 5.00 to 6.00 | 5.00 to 6.00 | 6.00 to 7.00 | 6.00 to 7.00 | 6.00 to 7.00 | 6.00 to 7.00 | 5.00 to 6.00 | CCn1c(-c2cccnc2[C@H](C)OC)c2c3cc(ccc31)-c1csc(n1)C[C@H](NC(=O)[C@H](C(C)C)N(C)C(=O)N1[C@@H](C)CN(C)C[C@@H]1C)C(=O)N1CCC[C@H](N1)C(=O)OCC(C)(C)C2 [Example A609] | 6.00 to 7.00
5 | 6.00 to 7.00 | 6.00 to 7.00 | 6.00 to 7.00 | 6.00 to 7.00 | 6.00 to 7.00 | 6.00 to 7.00 | 6.00 to 7.00 | 6.00 to 7.00 | 6.00 to 7.00 | 7.00 to 8.00 | 6.00 to 7.00 | 6.00 to 7.00 | 6.00 to 7.00 | CCn1c(-c2cccnc2[C@H](C)OC)c2c3cc(ccc31)-c1csc(n1)C[C@H](NC(=O)[C@H](C(C)C)N(C)C(=O)N1[C@H](C)CN(C)C[C@H]1C)C(=O)N1CCC[C@H](N1)C(=O)OCC(C)(C)C2 [Example A610] | 6.00 to 7.00
6 | 6.00 to 7.00 | 6.00 to 7.00 | 5.00 to 6.00 | 5.00 to 6.00 | 5.00 to 6.00 | 5.00 to 6.00 | 5.00 to 6.00 | 5.00 to 6.00 | 6.00 to 7.00 | 6.00 to 7.00 | 6.00 to 7.00 | 5.00 to 6.00 | 6.00 to 7.00 | CCn1c(-c2cccnc2[C@H](C)OC)c2c3cc(cnc31)-c1csc(n1)C[C@H](NC(=O)[C@H](C(C)C)N(C)C(=O)N1CC(OC)C1)C(=O)N1CCC[C@H](N1)C(=O)OCC(C)(C)C2 [Example A612] | 6.00 to 7.00

Source: US20230233569A1 (Revolution Medicines, Inc., priority 2020, published 2023)
